Data taken from publication PMC9671208, “Synthesis, biological evaluation, and molecular docking of novel hydroxyzine derivatives as potential AR antagonists” (Frontiers in Chemistry, 2022).

Legend:
AR = molecular target: T1, AR (Homo sapiens, UniProt P10275); assay: AR reporter gene (luciferase) assay; assay type: cell-based; conditions: read-out: AR antagonistic activity % (10 μM)
T1 sequence (P10275 1-920): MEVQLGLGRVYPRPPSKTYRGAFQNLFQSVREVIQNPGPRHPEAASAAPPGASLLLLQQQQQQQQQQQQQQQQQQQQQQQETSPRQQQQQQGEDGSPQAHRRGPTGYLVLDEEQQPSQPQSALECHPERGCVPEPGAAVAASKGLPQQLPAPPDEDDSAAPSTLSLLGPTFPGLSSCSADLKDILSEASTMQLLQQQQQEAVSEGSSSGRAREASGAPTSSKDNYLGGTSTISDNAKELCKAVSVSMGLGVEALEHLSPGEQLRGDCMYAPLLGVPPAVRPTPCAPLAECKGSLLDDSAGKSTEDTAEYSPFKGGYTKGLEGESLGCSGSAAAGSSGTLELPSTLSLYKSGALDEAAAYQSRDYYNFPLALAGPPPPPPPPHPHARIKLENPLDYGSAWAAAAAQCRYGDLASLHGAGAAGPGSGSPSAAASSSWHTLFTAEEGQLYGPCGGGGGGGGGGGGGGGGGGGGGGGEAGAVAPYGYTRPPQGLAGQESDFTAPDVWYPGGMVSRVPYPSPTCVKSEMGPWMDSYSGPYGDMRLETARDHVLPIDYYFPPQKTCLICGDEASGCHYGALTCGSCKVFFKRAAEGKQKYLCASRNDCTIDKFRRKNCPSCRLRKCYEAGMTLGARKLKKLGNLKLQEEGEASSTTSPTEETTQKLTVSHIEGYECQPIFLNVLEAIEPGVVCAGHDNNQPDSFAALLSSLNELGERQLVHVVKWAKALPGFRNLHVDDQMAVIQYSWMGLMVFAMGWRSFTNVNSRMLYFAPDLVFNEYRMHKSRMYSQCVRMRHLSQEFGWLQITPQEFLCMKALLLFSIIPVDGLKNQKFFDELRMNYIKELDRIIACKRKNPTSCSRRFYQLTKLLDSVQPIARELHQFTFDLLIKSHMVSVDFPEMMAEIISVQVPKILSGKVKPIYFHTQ
Protocol: Firefly and Renilla luciferase activities, were determined using the Dual-Glo™luciferase assay kit. RLUs were determined using the GloMax®96-Microplate Luminometer.

LNCaP = assay: CCK-8 cytotoxicity assay, LNCaP; assay type: cell-based, human; conditions: for IC50: Homo sapiens, LNCaP cells, CCK-8, 24 h, mean ± SD of three experiments
Protocol: (§1) Cell proliferation was measured using the CCK-8 assay kit ([Kaspers et al., 1997]; [Kaspers et al., 1998]; [Ding et al., 2010]). Cells were seeded into 96-well plates (>5*10^4) with approximately 100 ul of cell suspension per well and incubated in 37°C incubator for 4 h. Various concentrations of the compounds were then added and incubated for a further 24 h in a 37°C incubator. Finally, 10 ul CCK8 was added and incubated for 0.5–4 h, absorbance at 450 nm was determined. ([Guo et al., 2021]; [He et al., 2022a]; [Hu et al., 2022]).
(§2) The in vitro cytotoxic activity results of the synthesized derivatives 3–17 against human prostate cancer lines (PC-3, LNCaP, and DU145) and the human prostate epithelial cell line (WPMY-1) were evaluated, as shown in Table 1.

DU145 = assay: CCK-8 cytotoxicity assay, DU145; assay type: cell-based, human; conditions: for IC50: Homo sapiens, DU-145, DU145 cells, CCK-8, 24 h, mean ± SD of three experiments
Protocol: as §1, §2

PC-3 = assay: CCK-8 cytotoxicity assay, PC-3; assay type: cell-based, human; conditions: for IC50: Homo sapiens, PC-3 cells, CCK-8, 24 h, mean ± SD of three experiments
Protocol: as §1, §2

WPMY-1 = assay: CCK-8 cytotoxicity assay, WPMY-1 normal prostate epithelial cells; assay type: cell-based; conditions: WPMY-1 normal human prostate epithelial cells, CCK-8, 24 h; mean ± SD of three experiments
Protocol: as §1, §2

inhibition at 10 µM (AR)	melting point	Structure (SMILES)	IC50 (LNCaP)	IC50 (DU145)	IC50 (PC-3)	IC50 (WPMY-1)	cytotoxic activity against LNCaP cells (in words) (LNCaP)	cytotoxic activity against DU145 cells (in words) (DU145)	cytotoxic activity against PC-3 cells (in words) (PC-3)
40.17 ± 0.24%	122 to 123 °C	OCCc1ccc(CN2CCN(C(c3ccccc3)c3ccccc3)CC2)cc1 [Compound 3, 2-(4-((4-benzhydrylpiperazin-1-yl)methyl)phenyl)ethan-1-ol]	6.14 ± 0.58 µM	11.1 ± 0.76 µM	8.13 ± 0.12 µM	> 50 µM			
32.5 ± 0.65%	125 to 126 °C	Cc1ccc(C(c2ccccc2)N2CCN(Cc3ccc(CCO)cc3)CC2)cc1 (stereo not drawn) [Compound 4, 2-(4-((4-(phenyl(p-tolyl)methyl)piperazin-1-yl)methyl)phenyl)ethan-1-ol]	4.67 ± 1.02 µM	6.14 ± 0.24 µM	2.56 ± 0.32 µM	> 50 µM	strong cytotoxic activities	strong cytotoxic activities	strong cytotoxic activities
22.7 ± 0.72%	128 to 129 °C	Cc1ccc(C(c2ccc(C)cc2)N2CCN(Cc3ccc(CCO)cc3)CC2)cc1 [Compound 5, 2-(4-((4-(di-p-tolylmethyl)piperazin-1-yl)methyl)phenyl)ethan-1-ol]	3.73 ± 0.58 µM	9.82 ± 0.24 µM	12.1 ± 0.29 µM	37.51 ± 0.37 µM		moderate activity	moderate activity
30.75 ± 0.17%	116 to 117 °C	COc1ccc(C(c2ccccc2)N2CCN(Cc3ccc(CCO)cc3)CC2)cc1 (stereo not drawn) [Compound 6, 2-(4-((4-((4-methoxyphenyl)(phenyl)methyl)piperazin-1-yl)methyl)phenyl)ethan-1-ol]	6.17 ± 1.02 µM	2.17 ± 0.72 µM	3.15 ± 0.48 µM	> 50 µM	strong cytotoxic activities	strong cytotoxic activities	strong cytotoxic activities
38.7 ± 0.83%	116 to 117 °C	OCCc1ccc(CN2CCN(C(c3ccccc3)c3ccc(F)cc3)CC2)cc1 (stereo not drawn) [Compound 7, 2-(4-((4-((4-fluorophenyl)(phenyl)methyl)piperazin-1-yl)methyl)phenyl)ethan-1-ol]	5.17 ± 0.63 µM	2.17 ± 1.12 µM	1.87 ± 0.22 µM	48.26 ± 0.41 µM	strong cytotoxic activities	strong cytotoxic activities	strong cytotoxic activities
25.2 ± 0.71%	133 to 134 °C	OCCc1ccc(CN2CCN(C(c3ccc(F)cc3)c3ccc(F)cc3)CC2)cc1 [Compound 8, 2-(4-((4-(bis(4-fluorophenyl)methyl)piperazin-1-yl)methyl)phenyl)ethanol]	4.92 ± 0.29 µM	12.3 ± 0.16 µM	10.12 ± 0.08 µM	35.53 ± 0.13 µM			
28.42 ± 0.25%	130 to 131 °C	OCCc1ccc(CN2CCN(C(c3ccccc3)c3ccc(Cl)cc3)CC2)cc1 (stereo not drawn) [Compound 9, 2-(4-((4-((4-chlorophenyl)(phenyl)methyl)piperazin-1-yl)methyl)phenyl)ethanol]	4.13 ± 0.06 µM	7.63 ± 0.12 µM	1.53 ± 0.16 µM	> 50 µM	strong cytotoxic activities	strong cytotoxic activities	strong cytotoxic activities
20.47 ± 0.18%	127 to 128 °C	OCCc1ccc(CN2CCN(C(c3ccc(Cl)cc3)c3ccc(Cl)cc3)CC2)cc1 [Compound 10, 2-(4-((4-(bis(4-chlorophenyl)methyl)piperazin-1-yl)methyl)phenyl)ethan-1-ol]	7.14 ± 0.29 µM	10.8 ± 1.14 µM	15.24 ± 0.14 µM	> 50 µM			
58.88 ± 0.23%	117 to 118 °C	COc1ccc(CN2CCN(Cc3ccc(CCO)cc3)CC2)cc1 [Compound 14, 2-(4-((4-(4-methoxybenzyl)piperazin-1-yl)methyl)phenyl)ethan-1-ol]	16.2 ± 0.53 µM	24.1 ± 0.47 µM	11.1 ± 0.67 µM	> 50 µM			

Further lines, the compound ahead of its results:

Structure (SMILES)	inhibition at 10 µM (AR)	melting point	IC50 (LNCaP)	IC50 (DU145)	IC50 (PC-3)	IC50 (WPMY-1)	cytotoxic activity against LNCaP cells (in words) (LNCaP)	cytotoxic activity against DU145 cells (in words) (DU145)	cytotoxic activity against PC-3 cells (in words) (PC-3)
OCCc1ccc(CN2CCN(Cc3ccccc3)CC2)cc1 [Compound 11, 2-(4-((4-benzylpiperazin-1-yl)methyl)phenyl)ethan-1-ol]	65.15 ± 0.57%	119 to 120 °C	11.2 ± 0.14 µM	11.3 ± 0.27 µM	20.4 ± 0.48 µM	> 50 µM			
CC(c1ccccc1)N1CCN(Cc2ccc(CCO)cc2)CC1 (stereo not drawn) [Compound 12, 2-(4-((4-(1-phenylethyl)piperazin-1-yl)methyl)phenyl)ethan-1-ol]	68.62 ± 0.38%	114 to 115 °C	7.76 ± 0.19 µM	16.3 ± 0.63 µM	13.7 ± 1.12 µM	> 50 µM			
Cc1ccc(CN2CCN(Cc3ccc(CCO)cc3)CC2)cc1 [Compound 13, 2-(4-((4-(4-methylbenzyl)piperazin-1-yl)methyl)phenyl)ethan-1-ol]	64.18 ± 0.45%	112 to 113 °C	22.1 ± 0.76 µM	17.2 ± 1.02 µM	15.4 ± 0.42 µM	47.14 ± 0.42 µM			
OCCc1ccc(CN2CCN(Cc3ccc(F)cc3)CC2)cc1 [Compound 15, 2-(4-((4-(4-fluorobenzyl)piperazin-1-yl)methyl)phenyl)ethan-1-ol]	64.35 ± 0.17%	114 to 115 °C	18.45 ± 0.16 µM	16.2 ± 0.62 µM	10.5 ± 1.14 µM	> 50 µM			
OCCc1ccc(CN2CCN(Cc3ccc(Cl)cc3)CC2)cc1 [Compound 16, 2-(4-((4-(4-chlorobenzyl)piperazin-1-yl)methyl)phenyl)ethan-1-ol]	60.25 ± 0.35%	109 to 110 °C	16.4 ± 0.19 µM	31.5 ± 1.21 µM	14.4 ± 0.35 µM	> 50 µM			
OCCc1ccc(CN2CCN(C3c4ccccc4Sc4ccccc43)CC2)cc1 [Compound 17, 2-(4-((4-(9H-thioxanthen-9-yl)piperazin-1-yl)methyl)phenyl)ethan-1-ol]	36.5 ± 0.79%	121 to 122 °C	5.61 ± 0.86 µM	8.35 ± 0.28 µM	6.42 ± 0.52 µM	> 50 µM			
CC(C)(C)NC(=O)[C@H]1CC[C@H]2[C@@H]3CC[C@H]4NC(=O)C=C[C@]4(C)[C@H]3CC[C@]12C [Finasteride, reference compound]			13.5 µM	14.6 µM	17.8 µM				
COc1ccccc1N1CCN(CC(O)COc2cccc3ccccc23)CC1 (stereo not drawn) [Naftopidil, reference compound]			22.4 ± 0.61 µM	34.58 ± 0.31 µM	42.1 ± 0.79 µM	> 50 µM			
